Assay results reported in US5498632A, “Esters of acyl carnitines with long-chain aliphatic alcohols and pharmaceutical compositions containing same having antibacterial activity” (Sigma-Tau Industrie Farmaceutiche Riunite S.p.A., priority 1992, dated 1996).

Legend:
[1] = system: Campylobacter coli LI 048; assay: MIC in agar (agar dilution); format: cell-based
Description: (§1) In this experiment the activity of ST 722 and ST 712 against Campylobacter and Helicobacter was investigated.
(§2) Campylobacter fetus ATCC 27374, Campylobacter coli LI 048, Campylobacter jejuni 84-ISS, and Helicobacter pylori NCTC 11637.
(§3) The culture medium was Columbia agar base supplemented with 7% (V/V) defribinated horse blood (DHB) for Campylobacter strains, and the same medium additioned with Vitox (Oxoid) for Helicobacter strain.
(§4) The Campylobacter and Helicobacter strains, preserved at -80° C. in DHB containing 10% (V/V) glycerol, were thawed and grown, in their respective culture medium, in culture flasks, which were incubated for 48 hours at 37° C. in a 10% CO2 atmosphere. After this first growth cycle, the bacteria were allowed to go through a second growth cycle in the same conditions as above.
(§5) The bacterial "patina" was then harvested by resuspension in 4-5 ml of Mueller-Hinton broth, the turbidity of which was then assessed according to Mc Farland's criteria (BRAY W. E., Clinical Laboratory Methods, 5th Ed. C. V. MOSBY, St. Louis, Mo. 1957).
(§6) The Helicobacter suspension was adjusted to an approximate concentration of 1.0×10^9 and 1.0×10^8 organisms/ml, while the Campylobacter suspension was adjusted to 1.0×10^7 and 1.0×10^6 organisms/ml.
(§7) With a Steers-type multipoint inoculator (STEERS E., FOLTZ E. L., GRAVES S., RIDEN J., 1959. Inocula-replicating apparatus for routine testing of antibacterial susceptibility to antibiotics. Antibiot. Chemoter. 9: 307-311) 1-μl volumes of the above standardized suspensions were spot-transferred into the wells of a 96-well microtiter plate, which had previously been filled with 0.2 ml/well of Mueller-Hinton agar 5% DHB, containing the test substances at different concentrations.
(§8) The plates was then incubated for 48/72 hours at 37° C. in a 10% CO2 atmosphere.

[2] = system: Campylobacter jejuni 84-ISS; assay: MIC in agar (agar dilution); format: cell-based
Description: as §1, §2, §3, §4, §5, §6, §7, §8

[3] = system: Campylobacter fetus ATCC 27374; assay: MIC in agar (agar dilution); format: cell-based
Description: as §1, §2, §3, §4, §5, §6, §7, §8

[4] = system: Helicobacter pylori NCTC 11637; assay: MIC in agar (agar dilution); format: cell-based
Description: as §1, §2, §3, §4
The bacterial "patina" was then harvested by resuspension in 4-5 ml of Mueller-Hinton broth, the turbidity of which was then assessed according to Mc Farland's criteria (BRAY W. E., Clinical Laboratory Methods, 5th Ed. C. V. MOSBY, St. Louis, Mo. 1957). […]
as §7, §8

[5] = system: Gram- bacterial strains; assay: Mean MIC in broth and resistant strain number, Gram- strains; format: cell-based; conditions: 18 h, read-out: Mean MIC values
Description: (§9) MICs were determined by a standard microdilution test, using serial two-fold dilutions of the substances in Mueller-Hinton broth.
(§10) The inoculum was prepared from an overnight culture in Mueller-Hinton broth matching the 0.5 Mc Farland (turbidity) standard (BRAY W. E., Clinical Laboratory Methods, 5th Ed. C. V. MOSBY, St. Louis, Mo. 1957), and was adjusted to a final concentration of 5.0×10^4 colony-forming units/ml.
(§11) Equal volumes (0.1 ml) of both bacterial suspensions and substance solutions were distributed in microtiter plates (Falcon, 96 wells, round bottom), and then placed in a humidified incubator (37° C.) for 18 hours.
(§12) Evaluation of the Minimal Inhibitory Concentration (MIC) in broth of 16 new substances for Gram- bacterial strains.
(§13) The following strains were used: Enterobacter (1), Escherichia (3), Klebsiella (3), Proteus (3); Pseudomonas (2); Salmonella (2), Serratia (1).

[6] = Assessment of behaviour and mortality in mice (Irwin's method); design: species or system mouse (male Crl:(CD-1)(ICR)BR); conditions: mouse, in vivo; oral, dose 1000, 4 animals/dose
Description: (§14) The assessment of normal behaviour in mice was carried out following S. Irwin's method (Psychopharmacologia, 13, 222 [1968]). This method allows alterations in some behavioural, neurophysiologic and neurovegetative parameters to be detected, which are directly observable by the researcher. The study was conducted using male Crl:(CD-1)(ICR)BR mice (Charles River--Italy) weighing 22-25 g, following oral administration of the compounds suspended in carboxymethylcellulose (0.5% by weight in H2 O) to groups of 4 animals/dose.
(§15) The animals were continously kept under observation for five hours following treatment and twice a day in the subsequent five days. Mortality was also observed during the overall test period.

[7] = system: mice; assay: as above; design: species or system mouse (male Crl:(CD-1)(ICR)BR); conditions: mouse, in vivo, po
Description: as §14, §15

[8] = system: Pseudomonas aeruginosa (10 E); assay: MIC in broth, Gram- strains; format: cell-based; conditions: 18 h, read-out: Minimal Inhibitory Concentration (MIC)
Description: as §9, §10, §11, §12, §13

[9] = system: Salmonella typhimurium (D.S.); assay: MIC in broth, Gram- strains; format: cell-based; conditions: Salmonella enterica, 18 h, read-out: Minimal Inhibitory Concentration (MIC)
Description: as §9, §10, §11, §12, §13

[10] = system: Escherichia coli (76 F); assay: MIC in broth, Gram- strains; format: cell-based; conditions: 18 h, E. coli (76 F), read-out: Minimal Inhibitory Concentration (MIC)
Description: as §9, §10, §11, §12, §13

[11] = system: Serratia marcescens (A/1); assay: MIC in broth, Gram- strains; format: cell-based; conditions: 18 h, read-out: Minimal Inhibitory Concentration (MIC)
Description: as §9, §10, §11, §12, §13

[12] = system: Proteus vulgaris (UM); assay: MIC in broth, Gram- strains; format: cell-based; conditions: 18 h, read-out: Minimal Inhibitory Concentration (MIC)
Description: as §9, §10, §11, §12, §13

[13] = system: Proteus mirabilis (32); assay: MIC in broth, Gram- strains; format: cell-based; conditions: 18 h, read-out: Minimal Inhibitory Concentration (MIC)
Description: as §9, §10, §11, §12, §13

[14] = system: Klebsiella oxytoca (552); assay: MIC in broth, Gram- strains; format: cell-based; conditions: 18 h, read-out: Minimal Inhibitory Concentration (MIC)
Description: as §9, §10, §11, §12, §13

[15] = system: Enterobacter aerogenes (UM); assay: MIC in broth, Gram- strains; format: cell-based; conditions: Klebsiella aerogenes, 18 h, read-out: Minimal Inhibitory Concentration (MIC)
Description: as §9, §10, §11, §12, §13

[16] = system: Klebsiella pneumoniae (7823); assay: MIC in broth, Gram- strains; format: cell-based; conditions: 18 h, read-out: Minimal Inhibitory Concentration (MIC)
Description: as §9, §10, §11, §12, §13

[17] = system: Pseudomonas aeruginosa (3 E); assay: MIC in broth, Gram- strains; format: cell-based; conditions: 18 h, read-out: Minimal Inhibitory Concentration (MIC)
Description: as §9, §10, §11, §12, §13

[18] = system: Escherichia coli (92 F); assay: MIC in broth, Gram- strains; format: cell-based; conditions: 18 h, E. coli (92 F), read-out: Minimal Inhibitory Concentration (MIC)
Description: as §9, §10, §11, §12, §13

[19] = system: 4 Gram- bacterial strains and 1 Gram+ bacterial strain; assay: Broth dilution test of undecyl alcohol; format: cell-based; conditions: emulsified in Tween 80, up to 400 mcg/ml
Description: (§16) To ascertain whether the antimicrobial activity was due to the undecyl alcohol (a possible product from the hydrolysis of the undecyl esters, such as e.g. ST 722 and ST 712), different "in vitro" tests were performed to overcome the difficulties stemming from the insolubility of the undecyl alcohol in the assay medium.
(§17) To circumvent this problem, three different experimental approaches were chosen obtaining the following results:
3) Undecyl alcohol emulsified in Tween 80 and tested up to the concentration of 400 mcg/ml in broth seeded with 4 Gram- bacterial strains and 1 Gram+ bacterial strain (Broth dilution test).

[20] = system: 4 Gram- bacterial strains; assay: Agar diffusion test of undecyl alcohol; format: cell-based; conditions: absolute (0.05 ml)
Description: as §16, §17
2) Undecyl alcohol absolute (0.05 ml) in agar seeded with 4 Gram- bacterial strains (Agar diffusion test).

[21] = system: 7 Gram- bacterial strains; assay: Agar dilution test of undecyl alcohol; format: cell-based; conditions: emulsified in Tween 80, up to 300 mcg/ml
Description: as §16, §17
1) Undecyl alcohol emulsified in Tween 80 and tested up to the concentration of 300 mcg/ml in agar seeded with 7 Gram- bacterial strains (Agar dilution test).

CCCCCCCCCCCOC(=O)CC(C[N+](C)(C)C)OC(=O)C(C)C [ST 712, Isobutyryl-L-Carnitine Undecyl Ester Chloride]
MIC ([1]; Campylobacter coli, LI048, I = inoculum of 1.0 × 10^3): 6.25 µg/mL | MIC in agar ([1]; II = inoculum of 1.0 × 10^4): 6.25 µg/mL | MIC ([2]; I = inoculum of 1.0 × 10^3): 25 µg/mL | MIC ([2]; II = inoculum of 1.0 × 10^4): 50 µg/mL | MIC ([3]; Campylobacter fetus, ATCC27374, I = inoculum of 1.0 × 10^3): 100 µg/mL | MIC in agar ([3]; II = inoculum of 1.0 × 10^4): 100 µg/mL | MIC ([4]; Helicobacter pylori, NCTC11637, I = inoculum of 1.0 × 10^5 cells/ml, read-out: MIC in agar): 3.12 µg/mL | MIC in agar ([4]; II = inoculum of 1.0 × 10^6 cells/ml): 3.12 µg/mL | antibacterial activity for Helicobacter and Campylobacter ([4]; agar, Helicobacter and Campylobacter strains): possess an antibacterial activity | MIC [5]: 36.4 µg/mL | mortality at 120 h [6]: 0% | Symptoms [7]: NONE | MIC [8]: 50 µg/mL | MIC [9]: 25 µg/mL | MIC [10]: 25 µg/mL | MIC [11]: 50 µg/mL | MIC [12]: 100 µg/mL | MIC [13]: > 100 µg/mL | MIC [14]: 12.5 µg/mL | MIC [15]: 25 µg/mL | MIC [16]: 12.5 µg/mL | MIC [17]: 50 µg/mL | MIC [18]: 25 µg/mL

CCCCCCCCCCCO [Undecyl alcohol, undecyl alcohol]
antibacterial activity [19]: no activity | antibacterial activity [20]: no activity | antibacterial activity [21]: no activity
